The target of experiment [1] is Uncharacterized protein (Bos taurus) (UniProt E1BKU0). Put plainly: Displacement of [3H]CGS21680 from adenosine A2A receptor in Bos taurus (bovine) cortical membrane at 10 uM. Background: In a radioligand displacement assay an active substance lowers the binding of a labelled ligand.
Experiment [2] relates to cAMP phosphodiesterase 3 (Cavia porcellus). The experiment is described as follows: Inhibition of Cavia porcellus (guinea pig) PDE3 isolated from heart using [3H]cAMP as substrate at 50 uM by two-step method.
Experiment [3] has as its target T1, Adenosine receptor A3 (Homo sapiens) (UniProt P0DMS8).
T1 sequence (whole entry): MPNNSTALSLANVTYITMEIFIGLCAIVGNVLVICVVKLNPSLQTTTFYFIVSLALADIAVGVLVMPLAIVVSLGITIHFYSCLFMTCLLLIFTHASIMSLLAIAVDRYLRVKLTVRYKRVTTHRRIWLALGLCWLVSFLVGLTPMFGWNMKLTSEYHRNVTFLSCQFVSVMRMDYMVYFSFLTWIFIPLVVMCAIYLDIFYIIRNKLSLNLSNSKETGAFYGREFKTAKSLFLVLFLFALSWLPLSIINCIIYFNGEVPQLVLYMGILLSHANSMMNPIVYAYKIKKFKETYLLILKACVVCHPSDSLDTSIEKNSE
The experiment is described as follows: Displacement of [125I]AB-MECA from Homo sapiens (human) adenosine A3 receptor expressed in CHO cells at 10 uM. It counts as cell-based.

For experiment [4], the target named is T2, Adenosine receptor A1 (Bos taurus) (UniProt P28190).
T2 sequence (whole entry): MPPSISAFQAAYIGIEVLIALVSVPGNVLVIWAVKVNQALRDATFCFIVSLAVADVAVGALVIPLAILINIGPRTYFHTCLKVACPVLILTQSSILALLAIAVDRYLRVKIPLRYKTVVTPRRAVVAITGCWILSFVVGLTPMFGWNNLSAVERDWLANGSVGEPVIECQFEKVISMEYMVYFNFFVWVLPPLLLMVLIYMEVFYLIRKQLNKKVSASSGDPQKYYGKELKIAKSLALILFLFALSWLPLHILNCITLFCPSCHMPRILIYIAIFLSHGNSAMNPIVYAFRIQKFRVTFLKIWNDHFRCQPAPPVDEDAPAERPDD
Put plainly: Displacement of [3H]DPCPX from adenosine A1 receptor in Bos taurus (bovine) cortical membrane at 10 uM.

For experiment [5], the system named is cAMP phosphodiesterase 3 (Cavia porcellus). Put plainly: Inhibition of Cavia porcellus (guinea pig) PDE3 isolated from heart using [3H]cAMP as substrate at 100 uM by two-step method.
Experiment [6] shares this test system. Put plainly: Inhibition of Cavia porcellus (guinea pig) PDE3 isolated from heart using [3H]cAMP as substrate at 1 uM by two-step method.
Experiment [7] has the same test system. The experiment is described as follows: Inhibition of Cavia porcellus (guinea pig) PDE3 isolated from heart using [3H]cAMP as substrate at 10 uM by two-step method.
Experiment [8] has as its target T3, Adenosine receptor A1 (Bos taurus, UniProt P28190).
T3 sequence (P28190 whole entry): T2 sequence (whole entry)
The experiment is described as follows: Displacement of [3H]DPCPX from adenosine A1 receptor in Bos taurus (bovine) cortical membrane.

Experiment [9] concerns the target T4, Adenosine receptor A2a (Homo sapiens, UniProt P29274). Put plainly: Displacement of [3H]CGS21680 from Homo sapiens (human) adenosine A2A receptor expressed in CHO cells. It counts as cell-based.
For experiment [10], the target named is T5, Adenosine receptor A1 (Homo sapiens, UniProt P30542).
T5 sequence (P30542 whole entry): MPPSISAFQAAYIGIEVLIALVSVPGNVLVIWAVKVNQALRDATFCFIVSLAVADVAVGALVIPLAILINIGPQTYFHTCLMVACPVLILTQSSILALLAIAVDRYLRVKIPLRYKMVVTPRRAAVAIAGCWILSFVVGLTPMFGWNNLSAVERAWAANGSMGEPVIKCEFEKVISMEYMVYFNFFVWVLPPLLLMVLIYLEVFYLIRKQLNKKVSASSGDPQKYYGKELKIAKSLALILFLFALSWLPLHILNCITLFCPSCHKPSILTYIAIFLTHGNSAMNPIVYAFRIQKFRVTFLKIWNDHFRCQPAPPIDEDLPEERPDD
Put plainly: Displacement of [3H]DPCPX from Homo sapiens (human) adenosine A1 receptor expressed in CHO cells. It counts as cell-based.

The target in the next experiment is Uncharacterized protein (Bos taurus, UniProt E1BKU0). Put plainly: Displacement of [3H]CGS21680 from adenosine A2A receptor in Bos taurus (bovine) cortical membrane.
Sequence of Uncharacterized protein (E1BKU0 whole entry): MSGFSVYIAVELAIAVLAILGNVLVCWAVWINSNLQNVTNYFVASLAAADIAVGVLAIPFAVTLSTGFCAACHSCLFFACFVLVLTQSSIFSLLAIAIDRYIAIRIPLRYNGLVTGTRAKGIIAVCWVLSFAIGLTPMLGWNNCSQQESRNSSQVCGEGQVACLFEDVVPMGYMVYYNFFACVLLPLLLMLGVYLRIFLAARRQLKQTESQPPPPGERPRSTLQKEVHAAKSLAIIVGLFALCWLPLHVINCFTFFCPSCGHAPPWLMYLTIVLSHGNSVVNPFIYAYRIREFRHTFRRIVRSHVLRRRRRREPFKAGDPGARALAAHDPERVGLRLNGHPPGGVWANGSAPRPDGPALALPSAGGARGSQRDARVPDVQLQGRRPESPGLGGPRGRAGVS
For experiment [11], the target named is T6, Adenosine receptor A1 (Homo sapiens) (UniProt P30542).
T6 sequence (whole entry): T5 sequence (P30542 whole entry)
The experiment is described as follows: Displacement of [3H]DPCPX from Homo sapiens (human) adenosine A1 receptor expressed in CHO cells at 10 uM. It counts as cell-based.

Experiment [12] deals with T4, Adenosine receptor A2a. Put plainly: Displacement of [3H]CGS21680 from Homo sapiens (human) adenosine A2A receptor expressed in CHO cells at 10 uM. The format is cell-based.

SMILES strings stand for the structures.

T4 sequence (P29274 whole entry): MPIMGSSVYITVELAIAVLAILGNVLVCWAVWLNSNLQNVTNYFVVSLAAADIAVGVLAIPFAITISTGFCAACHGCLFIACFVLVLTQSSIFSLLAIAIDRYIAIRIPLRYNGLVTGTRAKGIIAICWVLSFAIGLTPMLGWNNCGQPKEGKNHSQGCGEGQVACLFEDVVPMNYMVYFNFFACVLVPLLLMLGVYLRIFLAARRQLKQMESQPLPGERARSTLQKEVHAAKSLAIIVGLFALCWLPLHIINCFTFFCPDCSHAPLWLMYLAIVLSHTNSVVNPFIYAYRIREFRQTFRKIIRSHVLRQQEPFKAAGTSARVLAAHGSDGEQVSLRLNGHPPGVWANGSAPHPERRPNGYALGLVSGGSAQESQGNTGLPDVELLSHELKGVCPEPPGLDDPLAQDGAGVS
Sequence of Uncharacterized protein (Bos taurus) (E1BKU0 as listed by the source): as the sequence (E1BKU0 whole entry) above

Turning to `CC(=O)c1cc(C(=O)C(C)(C)C)c(=O)[nH]c1C`, the inhibition worked out at 11% in experiment [1]; 2.15% in experiment [2]; 13% in experiment [3]; 0% in [4]; 8.23% in [5]; 0% in [6]. In addition, the inhibition in experiment [7] is 1.15%.

On to `O=C1CC(c2ccccc2)Cc2[nH]c(=O)c(S(=O)(=O)c3ccccc3)cc21` (centres undefined), for which the inhibition amounted to 5.7% in experiment [2]; 18% in experiment [3]; 10.4% in experiment [5]; 0% in experiment [6]; 0% in experiment [7]. The Ki at Adenosine receptor A1 [8] was determined as 5.8 µM; at Adenosine receptor A2a [9], 7 µM; on Adenosine receptor A1 [10], 7.8 µM; on Uncharacterized protein, 7.9 µM.

For `CC(C)(C)C(=O)c1cc2c([nH]c1=O)CC(c1ccccc1)CC2=O` (centres undefined), the inhibition in [2] worked out at 3.3%; in [3], 21%; in experiment [5] it was 4.2%; in [6], 0%; in [7], 0.8%; in [11], 11%. Moreover, the Ki is 5.1 µM on Adenosine receptor A1 [8], 16 µM on Adenosine receptor A2a [9] and 15 µM at Uncharacterized protein.

Regarding `O=C(c1ccccc1)c1cc(C(=O)c2ccccc2)c(=O)[nH]c1-c1ccccc1`, the inhibition in experiment [1] came out at 8%; in [2], 5.4%; in experiment [3] it was 2%; in experiment [4], 13%; in experiment [5], 9.6%; in experiment [6], 0%. Moreover, the inhibition in experiment [7] is 1.76%; in [11], 2%; on Adenosine receptor A2a [12] it was 13%.

On to `CC(=O)c1cc(S(=O)(=O)c2ccccc2)c(=O)[nH]c1C`, for which the inhibition came out at 0% in experiment [1]; 3.98% in experiment [2]; 0% in experiment [3]; 0% in experiment [4]; 8.72% in experiment [5]; 0% in [6]. The same compound gave an inhibition in experiment [7] of 1.03%.

With `O=C1CC(c2ccccc2)Cc2[nH]c(=O)c(C(=O)c3ccccc3)cc21` (centres undefined), the inhibition in experiment [1] stood at 0%; in experiment [2] it was 1.7%; in experiment [3] it was 0%; in experiment [5], 7.8%; in [6] it was 0%; in experiment [7], 5.2%. Moreover, the inhibition in experiment [11] was found to be 5%; at Adenosine receptor A2a [12] it was 16%. This compound also showed a Ki at Adenosine receptor A1 [8] of 6.5 µM.

Consider `O=C1CCCc2[nH]c(=O)c(S(=O)(=O)c3ccccc3)cc21`, for which the inhibition is 2% in [1]; 4.7% in [2]; 0% in [3]; 10% in experiment [4]; 5.7% in experiment [5]; 0% in [6]. Moreover, the inhibition was 0% in experiment [7] and 36% in experiment [11].

On to `CC(C)(C)C(=O)c1cc2c([nH]c1=O)CCCC2=O`, for which the inhibition in experiment [1] came to 0%; in experiment [2], 6.6%; in experiment [3] it was 0%; in [4], 13%; in experiment [5] it was 6.6%; in experiment [6], 0%. The inhibition in experiment [7] came out at 2.5%; in experiment [11], 0%.

For the compound `O=C1CCCc2[nH]c(=O)c(C(=O)c3ccccc3)cc21`, the inhibition in experiment [1] was determined as 4%; in experiment [2], 4.3%; in experiment [3] it was 0%; in experiment [4], 6%; in [5], 6%; in [6] it was 0%. For the same compound, the inhibition in [7] is 0%.

For the compound `CC(=O)c1cc(C(=O)c2ccccc2)c(=O)[nH]c1C`, the inhibition in experiment [1] stood at 0%; in experiment [2], 4.35%; in [3], 0%; in experiment [4] it was 0%; in experiment [5], 8.9%; in experiment [6], 0%. Moreover, in experiment [7], the inhibition worked out at 2%.

Take `O=C(c1ccccc1)c1cc(S(=O)(=O)c2ccccc2)c(=O)[nH]c1-c1ccccc1`: the inhibition in experiment [1] was 8%; in [2], 3.5%; in experiment [3], 0%; in [4] it was 8%; in experiment [5], 7.53%; in [6] it was 0%. Moreover, the inhibition in [7] came to 0%; in experiment [11] it was 1%; on Adenosine receptor A2a [12], 11%.

What is called inhibition is the percentage by which the read-out fell short of the control. Low readings indicate a response near the control, high ones a response far below the control. One may read the Ki as a measure of affinity in units of concentration, obtained from inhibition or displacement.

The record behind these values is ChEMBL document CHEMBL3046061, “Quinolinedione nucleus as a novel scaffold for A1 and A2A adenosine receptor antagonists” (Med Chem Res, 2008).
